From ChEMBL document CHEMBL1201862, “PubChem BioAssay data set” (2004)
Active and inactive are the calls of the source.

How the values were obtained:
[1] = inhibitors of HIV Env-driven cell fusion, dose response, cherry-pick (AID 652057); type: functional, cell-based
[2] = inhibitors of clade B AD8 Env fusion, dose response, cell-based, cherry-pick (AID 652062); type: functional;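 also: luciferase signal from cell-cell fusion driven by HIV-1 clade B AD8 Env; potency is for inhibitors of fusion seen as a drop in luminescence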
[3] = target: Genome polyprotein (dengue virus type 2, UniProt P29990); experiment: Dengue-2 NS5 methyltransferase inhibitors, primary screen, biochemical, confirmation dose response (AID 588689); type: functional
Chain of Genome polyprotein (P29990 2492-3391 limits assumed): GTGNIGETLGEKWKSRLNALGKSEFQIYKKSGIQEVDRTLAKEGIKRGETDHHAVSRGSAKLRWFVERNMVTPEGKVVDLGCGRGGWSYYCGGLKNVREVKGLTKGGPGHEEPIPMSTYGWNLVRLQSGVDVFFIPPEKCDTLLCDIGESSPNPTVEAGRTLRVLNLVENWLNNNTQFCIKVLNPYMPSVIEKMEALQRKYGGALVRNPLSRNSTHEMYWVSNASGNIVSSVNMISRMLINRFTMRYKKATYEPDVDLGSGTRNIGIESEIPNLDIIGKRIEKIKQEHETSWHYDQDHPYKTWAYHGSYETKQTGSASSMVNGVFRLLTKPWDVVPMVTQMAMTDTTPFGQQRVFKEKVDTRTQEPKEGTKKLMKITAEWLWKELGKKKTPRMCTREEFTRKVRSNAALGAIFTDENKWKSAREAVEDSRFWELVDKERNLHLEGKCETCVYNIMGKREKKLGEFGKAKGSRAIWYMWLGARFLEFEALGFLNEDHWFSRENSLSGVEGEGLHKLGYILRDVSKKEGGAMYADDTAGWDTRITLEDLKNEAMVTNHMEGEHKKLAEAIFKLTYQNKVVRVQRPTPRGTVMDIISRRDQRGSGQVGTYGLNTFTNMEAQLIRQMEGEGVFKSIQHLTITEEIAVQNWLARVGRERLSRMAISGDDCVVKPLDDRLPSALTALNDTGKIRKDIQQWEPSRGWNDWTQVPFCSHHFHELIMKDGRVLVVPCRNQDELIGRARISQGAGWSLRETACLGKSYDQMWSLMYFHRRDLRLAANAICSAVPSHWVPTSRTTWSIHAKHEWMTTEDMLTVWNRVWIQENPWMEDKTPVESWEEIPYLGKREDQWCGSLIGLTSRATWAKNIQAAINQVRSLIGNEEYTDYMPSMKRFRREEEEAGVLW

[4] = intracellular Trypanosoma cruzi inhibitors in host cells – cell-based, plate reader, cherry-pick samples, set 3, dose response (AID 651818); type: functional;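 also: compounds incubated with infected cells for about four days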
[5] = target: Heat shock protein HSP 90-alpha (Homo sapiens, UniProt P07900); type: functional, organism-based
[6] = NIH-3T3 fibroblast cytotoxicity, dose response, cytotoxicity control, cell-based, fluorescence, Alamar Blue, secondary assay (AID 2327); type: functional;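 also: NIH-3T3 mouse fibroblasts cultured with fluconazole at 8 µg/mL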
[7] = C. albicans growth with fluconazole, confirmation, fluorescence, retest (AID 2467); type: functional, cell-based
[8] = target: T1, Polyadenylate-binding protein 1 (Homo sapiens, UniProt P11940); experiment: PABP1 MLLE–PAM2 interaction inhibitors, dose response, miRNA deadenylation inhibitor project, biochemical, fluorescence polarization, Cy5-PAM2 peptide, secondary (AID 602260); type: functional; conditions: read-out: IC50_Mean
T1 sequence (P11940 whole entry): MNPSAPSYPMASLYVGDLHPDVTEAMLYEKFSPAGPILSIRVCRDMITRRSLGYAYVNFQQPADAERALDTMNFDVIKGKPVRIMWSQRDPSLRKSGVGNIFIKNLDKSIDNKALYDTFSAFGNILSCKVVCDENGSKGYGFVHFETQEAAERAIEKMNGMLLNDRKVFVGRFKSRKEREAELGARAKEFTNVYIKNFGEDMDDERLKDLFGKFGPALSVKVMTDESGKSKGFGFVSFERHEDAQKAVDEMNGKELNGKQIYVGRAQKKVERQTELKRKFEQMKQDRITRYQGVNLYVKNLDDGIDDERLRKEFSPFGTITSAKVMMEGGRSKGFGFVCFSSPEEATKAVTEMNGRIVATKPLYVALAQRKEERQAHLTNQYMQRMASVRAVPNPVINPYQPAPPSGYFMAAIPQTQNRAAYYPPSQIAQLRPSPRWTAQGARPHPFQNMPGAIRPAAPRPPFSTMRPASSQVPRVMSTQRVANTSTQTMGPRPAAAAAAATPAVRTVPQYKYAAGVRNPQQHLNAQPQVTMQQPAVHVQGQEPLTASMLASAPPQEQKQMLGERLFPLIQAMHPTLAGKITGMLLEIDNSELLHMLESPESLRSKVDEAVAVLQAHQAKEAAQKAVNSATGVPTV

[9] = target: T1, Polyadenylate-binding protein 1; experiment: PABP1 MLLE–PAM2 binding inhibitor potency, dose response, biochemical, fluorescence polarization, FITC-PAM2 peptide (AID 602259); type: functional; conditions: read-out: IC50_Mean
[10] = system: INS1; experiment: beta cell apoptosis inhibitors, cytokine rescue, dose response, luminescence, retest (AID 449756); type: functional, cell-based; conditions: Rattus norvegicus;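 also: cell death triggered by IL-1 beta plus TNF-alpha plus IFN-gamma mixture; protective hits raise ATP signal compared with cytokine alone wells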
[11] = inhibitors of intracellular T. cruzi replication, confirmation, NIH3T3 host cells, beta-gal luminescence (AID 2044); type: functional, cell-based;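 also: intracellular parasites grown in NIH/3T3 mouse fibroblasts as host cells; luminescent beta-galactosidase reporter signal from transgenic T. cruzi replicating inside host cells; inhibitors lower the luminescence signal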
[12] = cytotoxicity toward NIH3T3 fibroblasts, dose response, counter-screen, cell-based, ATP luminescence, mouse fibroblasts (AID 2010); type: functional;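 also: cells exposed to compound for about 90 hours before reading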
[13] = system: Streptococcus sp. 'group A'; experiment: growth inhibition of control SK(-) GAS strain, dose response, counter-screen for streptokinase expression inhibitor project, luminescence, kanamycin, BacTiterGlo, confirmation (AID 1900); type: functional, organism-based
[14] = target: T2, Streptokinase A (Streptococcus pyogenes serotype M1, UniProt P10520); experiment: S. pyogenes streptokinase expression inhibitors, potency, dose response, plasminogen activation absorbance, OD405 (AID 1914); type: functional, Streptococcus pyogenes M1 GAS;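 also: secreted streptokinase activity via plasminogen activation per viability signal from cell pellet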
T2 sequence (P10520 whole entry): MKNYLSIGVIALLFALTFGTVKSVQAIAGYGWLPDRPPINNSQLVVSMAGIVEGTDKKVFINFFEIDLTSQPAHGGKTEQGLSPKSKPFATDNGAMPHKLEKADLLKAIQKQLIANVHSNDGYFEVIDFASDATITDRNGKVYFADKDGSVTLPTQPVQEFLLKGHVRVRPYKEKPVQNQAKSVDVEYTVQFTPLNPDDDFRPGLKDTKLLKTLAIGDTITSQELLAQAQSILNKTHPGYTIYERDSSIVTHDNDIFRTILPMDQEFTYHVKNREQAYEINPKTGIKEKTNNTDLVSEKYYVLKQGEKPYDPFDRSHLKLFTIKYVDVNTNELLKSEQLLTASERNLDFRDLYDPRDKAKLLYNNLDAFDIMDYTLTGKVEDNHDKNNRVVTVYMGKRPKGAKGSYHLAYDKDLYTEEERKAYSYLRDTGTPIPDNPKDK

[15] = system: Streptococcus; experiment: Group A Streptococcus viability loss, dose response, counter-screen for streptokinase expression inhibitor project, luminescence, BacTiterGlo (AID 1915); type: functional, organism-based;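 also: potency for reduction of bacterial viability or growth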
[16] = target: T3, Replicative DNA helicase DnaB (Mycobacterium tuberculosis, UniProt P9WMR3); experiment: DnaB intein splicing inhibitors, dose response, biochemical, cell-free fluorescence (AID 449749); type: functional
T3 sequence (P9WMR3 whole entry): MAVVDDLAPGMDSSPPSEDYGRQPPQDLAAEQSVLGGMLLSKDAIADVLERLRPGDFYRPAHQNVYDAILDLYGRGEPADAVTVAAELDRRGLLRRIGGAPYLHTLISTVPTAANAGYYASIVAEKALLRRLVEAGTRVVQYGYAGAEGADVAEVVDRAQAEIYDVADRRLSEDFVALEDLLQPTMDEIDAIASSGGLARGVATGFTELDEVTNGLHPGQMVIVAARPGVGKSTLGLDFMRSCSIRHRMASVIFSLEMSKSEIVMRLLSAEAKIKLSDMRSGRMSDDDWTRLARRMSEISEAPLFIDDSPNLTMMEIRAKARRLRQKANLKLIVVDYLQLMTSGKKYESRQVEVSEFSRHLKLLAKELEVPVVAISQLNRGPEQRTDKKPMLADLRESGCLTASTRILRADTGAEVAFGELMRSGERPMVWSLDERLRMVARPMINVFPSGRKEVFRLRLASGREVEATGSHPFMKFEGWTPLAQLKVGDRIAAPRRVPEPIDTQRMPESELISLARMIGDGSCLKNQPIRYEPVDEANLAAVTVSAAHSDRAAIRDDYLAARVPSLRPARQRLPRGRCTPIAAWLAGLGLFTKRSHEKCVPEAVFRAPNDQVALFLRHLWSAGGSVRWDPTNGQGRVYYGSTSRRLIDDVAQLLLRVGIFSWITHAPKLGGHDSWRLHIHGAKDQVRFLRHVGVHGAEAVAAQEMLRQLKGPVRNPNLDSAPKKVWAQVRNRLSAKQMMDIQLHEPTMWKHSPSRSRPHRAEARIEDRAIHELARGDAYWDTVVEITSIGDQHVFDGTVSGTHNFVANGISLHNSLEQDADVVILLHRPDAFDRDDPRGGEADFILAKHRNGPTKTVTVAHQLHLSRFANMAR

[17] = target: T4, Protein RecA (Mycobacterium tuberculosis, UniProt P9WHJ3); experiment: Fluorescence Cell-Free Homogeneous Dose Retest to Identify Inhibitors of RecA-Intein Splicing Activity. [Related pubchem assays (depositor defined):AID2097, AID2223, AID489010, AID492950]; type: functional
T4 sequence (P9WHJ3 whole entry): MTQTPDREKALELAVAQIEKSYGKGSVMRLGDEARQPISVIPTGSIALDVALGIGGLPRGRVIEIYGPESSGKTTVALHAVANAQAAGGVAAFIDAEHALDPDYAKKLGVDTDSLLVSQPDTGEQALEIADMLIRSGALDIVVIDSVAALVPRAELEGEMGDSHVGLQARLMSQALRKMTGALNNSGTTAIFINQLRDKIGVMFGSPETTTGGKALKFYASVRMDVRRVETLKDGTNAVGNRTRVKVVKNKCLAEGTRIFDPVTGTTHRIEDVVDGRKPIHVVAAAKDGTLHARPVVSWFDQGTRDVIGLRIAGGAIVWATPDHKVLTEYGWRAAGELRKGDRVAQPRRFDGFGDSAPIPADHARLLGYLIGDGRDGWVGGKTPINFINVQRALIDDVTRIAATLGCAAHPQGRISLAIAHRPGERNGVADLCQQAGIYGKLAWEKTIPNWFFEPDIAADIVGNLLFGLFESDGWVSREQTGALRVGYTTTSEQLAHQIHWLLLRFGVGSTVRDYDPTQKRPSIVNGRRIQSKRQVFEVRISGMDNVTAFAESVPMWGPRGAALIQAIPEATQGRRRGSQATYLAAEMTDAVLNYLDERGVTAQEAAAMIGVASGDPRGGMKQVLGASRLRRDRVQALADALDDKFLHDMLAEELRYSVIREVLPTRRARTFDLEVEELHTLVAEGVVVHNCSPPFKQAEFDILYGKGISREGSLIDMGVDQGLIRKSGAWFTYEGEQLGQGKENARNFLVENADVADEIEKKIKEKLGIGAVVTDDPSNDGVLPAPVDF

[18] = growth suppression of PTEN-null colon cells, dose response, cell-based, HCT116 PTEN knockout (AID 1047); type: functional;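 also: HCT116 colon tumor cells with PTEN knocked out; cells exposed to compound for 60 hours before readout; potency for loss of cell viability measured by luminescence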
[19] = growth suppression of beta-catenin-knockout colon cells, dose response, cell-based, HCT116, human colon tumor (AID 1045); type: functional;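 also: HCT116 colon tumor cells with beta catenin knocked out; cells exposed to compound for 60 hours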
[20] = target: Cytochrome P450 2C19 (Homo sapiens, UniProt P33261); experiment: Cytochrome panel assay with activity outcomes. Panel member name: p450-cyp2c19 Compounds with AC50 equal or less than 10 uM are considered active; type: functional; conditions: read-out: AC50
Chain of Cytochrome P450 2C19 (P33261 whole entry, the tested form may be a part): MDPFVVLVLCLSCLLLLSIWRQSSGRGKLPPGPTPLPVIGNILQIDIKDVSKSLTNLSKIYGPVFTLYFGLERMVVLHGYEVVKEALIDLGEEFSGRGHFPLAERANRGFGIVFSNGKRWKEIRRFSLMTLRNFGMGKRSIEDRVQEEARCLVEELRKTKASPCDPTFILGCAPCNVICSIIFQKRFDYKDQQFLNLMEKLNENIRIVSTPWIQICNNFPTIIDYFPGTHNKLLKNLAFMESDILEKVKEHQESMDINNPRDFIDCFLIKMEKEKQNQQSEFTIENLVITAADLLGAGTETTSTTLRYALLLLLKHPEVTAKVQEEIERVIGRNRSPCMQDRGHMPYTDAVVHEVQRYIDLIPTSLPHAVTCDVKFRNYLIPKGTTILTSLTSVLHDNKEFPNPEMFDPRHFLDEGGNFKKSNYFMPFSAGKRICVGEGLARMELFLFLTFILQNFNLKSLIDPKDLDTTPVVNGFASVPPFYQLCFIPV

[21] = off-target signal loss in HeLa-CEM21 co-culture – HeLa F-luc CTL cells, cherry-picked, counter-screen for HIV-1 Env fusion inhibitor project, dose response (AID 652040); type: functional, cell-based;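 also: potency for signal decrease marking cytotoxic or nonspecific inhibition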

Cc1ccc(S(=O)(=O)NCC(=O)OCC(=O)NCc2ccc3c(c2)OCO3)cc1
AC50 [1]: 24 µM (active) | AC50 [2]: 5.22 µM (active)

COC1C=COC2(C)Oc3c(C)c(O)c4c(O)c(c(CN5CCN(C)CC5)c(O)c4c3C2=O)NC(=O)C(C)=CC=CC(C)C(O)C(C)C(O)C(C)C(OC(C)=O)C1C (stereo not drawn)
IC50 [3]: 96.6 µM (active)

Cc1noc(C)c1S(=O)(=O)Nc1ccc2c(c1)C(=O)N([C@H](C)CO)C[C@H](C)[C@H](CN(C)Cc1ccc(C(=O)Nc3ccccc3N)cc1)O2
AC50 [4]: 3.11 µM (active)

COc1ccc(NC(=O)Nc2ccc3c(c2)C(=O)N([C@H](C)CO)C[C@H](C)[C@H](CN(C)Cc2ccc(-c4ccccc4)cc2)O3)cc1
AC50 [4]: 4.77 µM (active)

C[C@@H]1CN([C@H](C)CO)C(=O)Cc2cc(NC(=O)Cc3cn(C)c4ccccc34)ccc2O[C@H]1CN(C)Cc1ccc(Oc2ccccc2)cc1
AC50 [4]: 3.74 µM (active)

O=C(O)c1cccc2c1Cc1cc([N+](=O)[O-])ccc1-2
AC50 [5]: 0.357 µM (active)

CCc1ccc(Nc2ccc(C(=O)O)cc2[N+](=O)[O-])cc1
IC50 [3]: > 100 µM (active)

O=C(Cc1ccc([N+](=O)[O-])cc1)NNC(=O)c1ccc2c(c1)OCO2
EC50 [6]: > 150 µM (inactive) | EC50 [7]: > 38 µM (not active)

O=C(COc1ccccc1)Nc1nc(-c2ccncc2)cs1
IC50 [8]: > 66 µM (inactive) | IC50 [9]: > 66 µM (inactive)

Cc1cc(C)cc(N2C(=O)CC(Sc3ccccc3C(=O)O)C2=O)c1 (stereo not drawn)
IC50 [8]: > 66 µM (inactive) | IC50 [9]: > 66 µM (inactive)

Nc1c(C(=O)Nc2ccc3c(c2)OCCO3)nnn1Cc1ccccc1Cl
AC50 [5]: 10.3 µM (active) | AC50 [10]: 0.653 µM (active)

O=C1NC(=O)C(=Cc2c(Cl)cccc2Cl)C(=O)N1
IC50 [3]: 43.4 µM (active)

Cc1ccc(CNC(=O)CSCc2cccc(F)c2)cc1
EC50 [6]: > 150 µM (inactive) | EC50 [7]: > 38 µM (not active)

O=C(NC(=S)Nc1ccc(Oc2ccccc2)cc1)c1ccc(Cl)cc1
EC50 [11]: 2.34 µM (active) | EC50 [12]: > 60 µM (not active) | IC50 [8]: > 66 µM (inactive) | IC50 [9]: > 66 µM (inactive)

CC(C)c1ccc(NC(=O)Cc2cn(C)c3ccccc23)cc1
EC50 [6]: > 150 µM (inactive) | EC50 [7]: > 38 µM (not active)

O=C1CNC(=O)/C1=C/c1ccc(Br)cc1
IC50 [3]: > 100 µM (active)

CC(NC(=O)CSC1=NCCS1)c1ccccc1 (stereo not drawn)
IC50 [8]: > 66 µM (inactive) | IC50 [9]: > 66 µM (inactive)

CC(OC(=O)CSc1ccc([N+](=O)[O-])cc1)C(=O)NC1CC1 (stereo not drawn)
IC50 [8]: > 66 µM (inactive) | IC50 [9]: > 66 µM (inactive)

CCOC(=O)c1sc(N2C(=O)C(O)=C(C(=O)c3ccco3)C2c2cccc(Cl)c2)nc1C (stereo not drawn)
EC50 [6]: 30.5 µM (active) | EC50 [13]: 7.41 µM (active) | EC50 [14]: > 150 µM (not active) | EC50 [7]: 1.41 µM (active) | EC50 [15]: 8.62 µM (active)

Cc1ccc(S(=O)(=O)N(C)C[C@H]2Oc3cc(-c4cccc(F)c4)ccc3S(=O)(=O)N([C@@H](C)CO)C[C@H]2C)cc1
AC50 [1]: 1.47 µM (active) | AC50 [2]: 6.67 µM (active)

Cc1ccc(N2C(=O)C(Cl)=C(N3CCOCC3)C2=O)cc1Cl
AC50 [16]: 6.76 µM (active) | EC50 [17]: 2.61 µM (active) | IC50 [3]: 34.7 µM (active)

N=C(N)SCP(=O)(c1ccccc1)c1ccccc1
IC50 [8]: > 66 µM (inactive) | IC50 [9]: > 66 µM (inactive)

O=C(CSc1nc(O)c(Cc2ccccc2)c(=O)[nH]1)Nc1ccccc1
IC50 [8]: > 66 µM (inactive) | IC50 [9]: > 66 µM (inactive)

COc1cccc(/C=C2\SC(=S)N(C(C(=O)O)c3ccccc3)C2=O)c1OC (stereo not drawn)
IC50 [3]: 49.7 µM (active)

COc1ccc(CNCCC(c2ccc(OC(C)C)cc2)C(C)C)cc1OC (stereo not drawn)
EC50 [11]: 0.416 µM (active) | EC50 [18]: 13 µM (active) | EC50 [12]: 9.8 µM (active) | EC50 [19]: 10.7 µM (active) | AC50 [20]: 10 µM (inconclusive) | AC50 [10]: 12.7 µM (active)

CCn1nccc1C(=O)Nc1ccc(S(=O)(=O)NC23CC4CC(CC(C4)C2)C3)cc1
EC50 [18]: 24.3 µM (active) | EC50 [19]: 27.9 µM (active)

O=C(Nc1cccc(C(F)(F)F)c1)Oc1ccc(Cl)c2cccnc12
EC50 [13]: 2.54 µM (active) | EC50 [15]: 4.98 µM (active) | AC50 [5]: 3.86 µM (active) | AC50 [10]: 7.15 µM (active)

CC(C)(C)c1ccc(-n2ncc3c2CCCC3NC(=O)CN2CCCC2=O)cc1 (stereo not drawn)
AC50 [21]: > 32 µM (inactive)
